Experimental data as given in PMC12833874 (Journal of Medicinal Chemistry, 2025).
Where two headings read alike, the source gives them in different places.

Target: NOPr (Homo sapiens, UniProt P41146)
Assay: BRET G-protein activation (GPA) assay, Gαi2, agonist and antagonist mode, Flp-In-NOPr-CHO cells
Type: cell-based
[1] = IC50, antagonist mode, inhibition of EC80 concentration of N/OFQ, n = 4 in duplicate
[2] = NOP IC50 (nM), supplementary csv, GPA assay antagonist mode
[3] = NOP pIC50 ± SEM, supplementary csv, GPA assay antagonist mode
[4] = pIC50 ± SEM, antagonist mode, inhibition of EC80 concentration of N/OFQ, n = 4 in duplicate
[5] = antagonist mode, inhibition of EC80 concentration of N/OFQ, n = 4 in duplicate, read-out: IC50 (converted)
[6] = antagonist mode, inhibition of EC80 concentration of N/OFQ, n = 4 in duplicate, read-out: pIC50 ± SEM (converted)
[7] = supplementary csv, GPA assay antagonist mode, read-out: NOP IC50 (converted)
[8] = supplementary csv, GPA assay antagonist mode, read-out: NOP pIC50 ± SEM (converted)

Sequence of NOPr (P41146 whole entry): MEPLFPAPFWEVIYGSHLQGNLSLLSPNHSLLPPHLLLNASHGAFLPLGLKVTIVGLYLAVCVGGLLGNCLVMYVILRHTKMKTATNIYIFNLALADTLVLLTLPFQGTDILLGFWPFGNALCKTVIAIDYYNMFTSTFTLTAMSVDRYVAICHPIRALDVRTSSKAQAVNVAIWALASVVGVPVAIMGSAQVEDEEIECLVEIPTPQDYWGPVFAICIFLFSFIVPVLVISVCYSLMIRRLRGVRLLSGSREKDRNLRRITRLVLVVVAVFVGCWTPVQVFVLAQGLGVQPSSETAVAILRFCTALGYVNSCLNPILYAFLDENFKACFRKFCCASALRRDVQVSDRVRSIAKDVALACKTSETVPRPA
Experimental: The functional activity of congeners 11a-h was assessed in a bioluminescence resonance energy transfer (BRET) assay measuring NOPr activation of the Gαi2 G protein through release of Gβγ subunits in Flp-In-NOPr-Chinese hamster ovary (CHO) cells, as summarized in Figure a.
Data represent the mean ± SEM of n = 4 experiments performed in duplicate. (a) Illustrative representation of the GPA assayligand-induced receptor activation causes G protein dissociation, releasing a Venus-tagged Gβγ (acceptor) to interact with a membrane-localized c-terminus of G protein-coupled receptor kinase 3 (masGRK3ct) fused to a renilla luciferase enzyme (RLuc8) (donor). […] After a 10 min incubation with the R-Luc substrate coelenterazine and NOPr ligands, luminescence was measured to quantify GPA as a BRET ratio between acceptor λem 535 nm/donor λem 475 nm.
Flp-In CHO cells stably expressing SNAP-NOPr were transiently transfected with Gαi2 (2 μg), Gβ1-Venus (156–259)­(1 μg), Gγ2-Venus­(1–155)­(1 μg), and masGRK3ct-RLuc8 (1 μg) using polyethylenimine (PEI) in a 1:6 DNA/PEI ratio. The mixture was suspended in sterile NaCl, vortexed, and then incubated (10 min, RT), before being added to the cells in fresh antibiotic media DMEM (7 mL) supplemented with 10% FBS (v/v) and penicillin (50 units·mL^–1)- streptomycin (50 μg.mL^–1).
Cells were then incubated with coelenterazine H (NanoLight Technology) (10 μL/well, 50 μM, 5 min, RT) before ligands were added to the 96-well plate with final ligand concentrations ranging from (10 μM-0.01 nM). […] Cells were incubated in the plate reader, and luminescence was read using dual emission detection at 475 nm (Rluc8 Donor) and 535 nm emission (BRET signal) at 10 and 30 min. Plates were read on a PHERAstar (BMG Lab Tech), and data were exported through MARS and analyzed using Prism (GraphPad, Version 10).

**Q.** Which IC50 [1] does the source give for `CC(C)(C)OC(=O)NCCC(=O)N1CCC[C@@H]1C(=O)NCCCN1CCC2(CC1)OCc1ccccc12` [11b, tert-Butyl (R)-(3-(2-((3-(3H-Spiro[isobenzofuran-1,4′-piperidin]-1′-yl)propyl)carbamoyl)pyrrolidin-1-yl)-3-oxopropyl)carbamate] here?
**A.** The IC50 was 7800 nM.

**Q.** And the IC50 [2]?
**A.** The IC50 was 7760 nM.

**Q.** And the IC50 [3]?
**A.** Its IC50 is 7760 nM.

**Q.** What about the IC50 [4] of the same compound?
**A.** Its IC50 is 7940 nM.

**Q.** Which results are given for `CC(C)(C)OC(=O)NCCCCC(=O)N1CCC[C@@H]1C(=O)NCCCN1CCC2(CC1)OCc1ccccc12` [11d, tert-Butyl (R)-(5-(2-((3-(3H-Spiro[isobenzofuran-1,4′-piperidin]-1′-yl)propyl)carbamoyl)pyrrolidin-1-yl)-5-oxopentyl)carbamate]?
**A.** IC50 [5]: 1200 nM; IC50 [6]: 1260 nM; IC50 [7]: 1230 nM; IC50 [8]: 1230 nM

**Q.** For `C[C@H](NC(=O)OC(C)(C)C)C(=O)N1CCC[C@@H]1C(=O)NCCCN1CCC2(CC1)OCc1ccccc12` [11a, tert-Butyl ((S)-1-((R)-2-((3-(3H-Spiro[isobenzofuran-1,4′-piperidin]-1′-yl)propyl)carbamoyl)pyrrolidin-1-yl)-1-oxopropan-2-yl)carbamate], which IC50 [1] is on record?
**A.** The IC50 was 11700 nM.

**Q.** And the IC50 [3]?
**A.** Its IC50 is 11700 nM.

**Q.** And the IC50 [4]?
**A.** The IC50 was 12600 nM.

**Q.** Which IC50 [5] does the source give for `CC(C)(C)OC(=O)NCCOc1ccc(C(=O)N2CCC[C@@H]2C(=O)NCCCN2CCC3(CC2)OCc2ccccc23)cc1` [11f, tert-Butyl (R)-(2-(4-(2-((3-(3H-Spiro[isobenzofuran-1,4′-piperidin]-1′-yl)propyl)carbamoyl)pyrrolidine-1-carbonyl)phenoxy)ethyl)carbamate] here?
**A.** Its IC50 is 270 nM.

**Q.** What about the IC50 [6] of the same compound?
**A.** Its IC50 is 251 nM.

**Q.** What about the IC50 [7] of the same compound?
**A.** Its IC50 is 269 nM.

**Q.** What about the IC50 [8] of the same compound?
**A.** Its IC50 is 269 nM.

**Q.** Which IC50 [5] does the source give for `CC(C)(C)OC(=O)NCCCC(=O)N1CCC[C@@H]1C(=O)NCCCN1CCC2(CC1)OCc1ccccc12` [11c, tert-Butyl (R)-(4-(2-((3-(3H-Spiro[isobenzofuran-1,4′-piperidin]-1′-yl)propyl)carbamoyl)pyrrolidin-1-yl)-4-oxobutyl)carbamate] here?
**A.** Its IC50 is 4900 nM.

**Q.** What about the IC50 [6] of the same compound?
**A.** The IC50 was 5010 nM.

**Q.** What about the IC50 [8] of the same compound?
**A.** Its IC50 is 4900 nM.

**Q.** With `CC(C)(C)OC(=O)NCCOc1cccc(CN2CCC[C@@H]2C(=O)NCCCN2CCC3(CC2)OCc2ccccc23)c1` [11g, tert-Butyl (R)-(2-(3-((2-((3-(3H-Spiro[isobenzofuran-1,4′-piperidin]-1′-yl)propyl)carbamoyl)pyrrolidin-1-yl)methyl)phenoxy)ethyl)carbamate] as the compound, how does the IC50 [1] read?
**A.** The IC50 was 20 nM.

**Q.** And the IC50 [2]?
**A.** Its IC50 is 19.5 nM.

**Q.** What about the IC50 [3] of the same compound?
**A.** The IC50 was 19.5 nM.

**Q.** And the IC50 [4]?
**A.** The IC50 was 20 nM.

**Q.** Which results are given for `CC(C)(C)OC(=O)NCCOc1cccc(C(=O)N2CCC[C@@H]2C(=O)NCCCN2CCC3(CC2)OCc2ccccc23)c1` [11e, tert-Butyl (R)-(2-(3-(2-((3-(3H-Spiro[isobenzofuran-1,4′-piperidin]-1′-yl)propyl)carbamoyl)pyrrolidine-1-carbonyl)phenoxy)ethyl)carbamate]?
**A.** IC50 [5]: 370 nM; IC50 [6]: 398 nM; IC50 [7]: 372 nM; IC50 [8]: 372 nM

**Q.** How did the IC50 [1] turn out when `CC(C)(C)OC(=O)NCCOc1ccc(CN2CCC[C@@H]2C(=O)NCCCN2CCC3(CC2)OCc2ccccc23)cc1` [11h, tert-Butyl (R)-(2-(4-((2-((3-(3H-Spiro[isobenzofuran-1,4′-piperidin]-1′-yl)propyl)carbamoyl)pyrrolidin-1-yl)methyl)phenoxy)ethyl)carbamate] was run?
**A.** Its IC50 is 5.5 nM.

**Q.** What about the IC50 [3] of the same compound?
**A.** The IC50 was 5.5 nM.

**Q.** What about the IC50 [4] of the same compound?
**A.** Its IC50 is 5.01 nM.
